In patent US9492436B2, “Azabenzimidazole derivatives” (Boehringer Ingelheim International GmbH, priority 2013, dated 2016) one finds EC50 data, which are given here for 21 compounds.

Usually EC50 stands for the concentration that produces a half-maximal response. Read a low EC50 as higher potency in that assay.

The target in this assay is T1, AMPK complex 1 (containing alpha1beta1gamma1) (Homo sapiens, UniProt Q13131+Q9Y478).
T1 construct: GST (Glutathion S transferase) (N); made in house; host or cells: baculovirus; virus made in Sf9, expression in High Five cells
T1 sequence (Q13131 whole entry): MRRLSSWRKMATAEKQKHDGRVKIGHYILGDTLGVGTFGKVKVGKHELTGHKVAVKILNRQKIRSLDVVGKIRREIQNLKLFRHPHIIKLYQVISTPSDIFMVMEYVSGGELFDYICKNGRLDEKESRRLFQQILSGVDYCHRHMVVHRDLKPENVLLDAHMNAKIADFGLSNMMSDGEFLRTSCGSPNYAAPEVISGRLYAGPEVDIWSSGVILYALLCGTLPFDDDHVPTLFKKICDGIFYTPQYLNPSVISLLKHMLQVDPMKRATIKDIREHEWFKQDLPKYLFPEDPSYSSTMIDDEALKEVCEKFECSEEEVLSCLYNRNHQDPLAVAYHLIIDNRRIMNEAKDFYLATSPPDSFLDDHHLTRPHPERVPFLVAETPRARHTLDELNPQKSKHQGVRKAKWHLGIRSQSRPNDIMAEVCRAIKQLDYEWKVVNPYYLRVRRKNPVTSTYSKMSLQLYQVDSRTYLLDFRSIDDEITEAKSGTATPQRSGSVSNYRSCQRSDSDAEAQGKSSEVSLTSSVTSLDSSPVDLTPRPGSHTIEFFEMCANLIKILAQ
T1 sequence (Q9Y478 whole entry): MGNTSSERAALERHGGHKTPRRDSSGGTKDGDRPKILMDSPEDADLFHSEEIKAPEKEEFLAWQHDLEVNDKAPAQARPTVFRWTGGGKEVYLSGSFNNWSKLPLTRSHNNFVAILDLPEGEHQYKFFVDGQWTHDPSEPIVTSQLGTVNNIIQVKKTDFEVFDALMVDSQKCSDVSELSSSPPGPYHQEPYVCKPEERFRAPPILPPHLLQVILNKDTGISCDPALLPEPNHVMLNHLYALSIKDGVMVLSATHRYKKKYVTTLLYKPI
T1 sequence (P54619 whole entry partner): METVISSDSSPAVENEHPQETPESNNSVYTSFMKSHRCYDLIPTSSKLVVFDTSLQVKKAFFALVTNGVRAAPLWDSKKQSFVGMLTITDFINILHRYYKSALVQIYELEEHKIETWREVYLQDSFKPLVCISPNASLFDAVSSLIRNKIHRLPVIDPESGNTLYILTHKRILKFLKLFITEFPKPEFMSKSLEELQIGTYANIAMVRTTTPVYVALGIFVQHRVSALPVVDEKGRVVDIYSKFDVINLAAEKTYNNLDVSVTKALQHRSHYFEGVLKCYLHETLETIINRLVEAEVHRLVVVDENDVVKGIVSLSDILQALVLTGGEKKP
Put plainly: In vitro AMPK activation assay (ADP-Glo Kinase Assay). The assay is classed as biochemical. Conditions: 30 μM ATP, 1 μM peptide, 60 min, room temperature. The text has this: Activated AMPK complex 1 (containing alpha1beta1gamma1) was obtained from baculovirus expression system. The gene encoding AMPK alpha1 was cloned into the pACG2T vector (BD Biosciences) to obtain a N-terminal Glutathion S transferase (GST)-fusion protein. The genes encoding AMPK beta 1 and gamma1 were cloned into the p2Bac dual multiple cloning site vector (Invitrogen) with beta1 under the control of the p10 promoter and gamma1 under the control of the PH promoter. The transfer vectors containing AMPK were co-transfected individually with AcPNV BacMagic-3 DNA (EMD Millipore) in Sf9 cells and the recombinant baculoviruses were harvested after 5 days, followed by 3 rounds of amplification of the virus stock in Sf9 cells. AMPK (alpha1beta1gamma1) was expressed in High Five 5 cells by co-infection of recombinant alpha1 virus and recombinant beta1/gamma1 virus for 72 h at 27° C. Cells were harvested by centrifugation and lysed by 3 freeze/thaw cycles in PBS with 10% glycerol and protease inhibitor cocktail (Roche). After centrifugation AMPK a1b1g1 in the supernatant was captured by immobilized glutathione (GE Healthcare), impurities were washed away with PBS and AMPK alpha1beta1gamma1 was eluted with PBS containing 20 mM reduced gluthathione. The protein buffer was then exchanged to PBS with 10% glycerol and protein concentration was determined by UV absorbance.
The white 384-well Optiplates (cat.no. 6007299) were purchased from PerkinElmer. The V9101 ADP-Glo Kinase Assay and ultra pure ATP (V915A) was purchased from Promega. The substrate for AMPK (NH2-HMRSAMSGLHLVKRR_CONH2) was purchased from Upstate (12-355).
Compounds were tested in either serial dilutions or single dose concentrations. The serial compound dilutions were prepared in 100% DMSO automatically. The final DMSO concentration in the assay was 0.1%.
The Compound Stock Solutions were 10 mM in 100% DMSO. The compounds were solubilised at room temperature.
In the 384-well plates 1.25 ul of test compound in assay buffer was mixed with 1.25 ul of AMPK and 1.25 μl of the peptide (final concentration of 1 μM) and 1.25 μl of ATP (final concentration of 30 μM), both dissolved in assay buffer. This step was followed by an incubation time of 60 min. Then 5 μl of ADP Glo Reagent was added. This was followed by 40 min of incubation. Then 10 μl of Kinase Detection Reagent was admixed. The plates were sealed and after an incubation period of 30 min, the luminescence signal was measured in an Envision reader. All incubation steps were accomplished at room temperature.
Each assay microtiter plate contained wells with vehicle controls instead of compound (0.1% DMSO in water) as reference for the low signal (100% CTL, low signal), and wells with serial dilutions of AMP (final 30 μM) as reference for high signals.
The luminescence signal generated was proportional to the ADP concentration produced and was correlated with AMPK activity. The analysis of the data was performed by the calculation of the percentage of ATP consumption of AMPK in the presence of the test compound compared to the consumption of ATP in the presence of AMPK without compound. (RLU(sample)/RLU(low control))*100[RLU=relative luminescence units]
An activator of the AMPK enzyme gave values above 100% CTL.
EC50 values based on dose response curves are calculated with the XIFIT software using the 4 Parameter Logistic Model or Sigmoidal Dose-Response Model.
(ADP-Glo turns the ADP formed in a reaction into a luminescent signal.)
`N=S1(=O)CCC(c2ccc(-c3nc4[nH]c(O[C@@H]5CO[C@H]6[C@@H]5OC[C@H]6O)nc4cc3Cl)cc2)CC1` (single isomer, unassigned) [Example 55] came in with a half-maximal effective concentration (EC50) of 26 nM. This counts as double-digit nanomolar. The same measure for `O=C(N=S1(=O)CCOCC1)c1ccc(-c2nc3[nH]c(O[C@@H]4CO[C@H]5[C@@H]4OC[C@H]5O)nc3cc2Cl)cc1` [Example 21, 4-[6-Chloro-2-((3R,3aR,6R,6aR)-6-hydroxy-hexahydro-furo[3,2-b]furan-3-yloxy)-3H-imidazo[4,5-b]pyridin-5-yl]-N-(4-oxo-4λ6-[1,4]oxathian-4-ylidene)-benzamide]: 43 nM. The same measure for `CS(=O)(=Nc1ccc(-c2nc3[nH]c(O[C@@H]4CO[C@H]5[C@@H]4OC[C@H]5O)nc3cc2Cl)cc1)c1ccncc1` (stereo partly drawn) [Example 26, N-(4-(6-Chloro-2-((3R,3aR,6R,6aR)-6-hydroxyhexahydrofuro[3,2-b]furan-3-yloxy)-3H-imidazo[4,5-b]pyridin-5-yl)phenyl)-S-methyl-S-(pyridin-4-yl)-sulfoximide]: 145 nM; for `CCS(C)(=O)=Nc1ccc(-c2ccc(-c3nc4[nH]c(O[C@@H]5CO[C@H]6[C@@H]5OC[C@H]6O)nc4cc3Cl)cc2)cc1` (stereo partly drawn) [Example 13, N-(4′-(6-Chloro-2-((3R,3aR,6R,6aR)-6-hydroxyhexahydrofuro[3,2-b]furan-3-yloxy)-3H-imidazo[4,5-b]pyridin-5-yl)biphenyl-4-yl)-S-ethyl-S-methylsulfoximide]: 4 nM.

`CS(C)(=O)=NC(=O)c1ccc(-c2nc3[nH]c(O[C@@H]4CO[C@H]5[C@@H]4OC[C@H]5O)nc3cc2Cl)cc1` [Example 3] came in with an EC50 of 402 nM.

Consider `N=S1(=O)CCC(c2ccc(-c3nc4[nH]c(O[C@@H]5CO[C@H]6[C@@H]5OC[C@H]6O)nc4cc3Cl)cc2)CC1` (single isomer, unassigned) [Example 54], for which the EC50 came out at 114 nM. The same measure for `CS(C)(=O)=NCc1cccc(-c2ccc(-c3nc4[nH]c(O[C@@H]5CO[C@H]6[C@@H]5OC[C@H]6O)nc4cc3Cl)cc2)c1` [Example 38, N-(4′-(6-Chloro-2-((3R,3aR,6R,6aR)-6-hydroxyhexahydrofuro[3,2-b]furan-3-yloxy)-3H-imidazo[4,5-b]pyridin-5-yl)biphenyl-3-ylmethyl)-S,S-dimethylsulfoximide]: 704 nM.

In the case of `CS(=N)(=O)c1cnc(-c2ccc(-c3nc4[nH]c(O[C@@H]5CO[C@H]6[C@@H]5OC[C@H]6O)nc4cc3Cl)cc2)nc1` (stereo partly drawn) [Example 49, (3R,3aR,6R,6aR)-6-(6-Chloro-5-(4-(5-(S-methylsulfonimidoyl)pyrimidin-2-yl)phenyl)-3H-imidazo[4,5-b]pyridin-2-yloxy)hexahydrofuro[3,2-b]furan-3-ol], a half-maximal response (EC50) required 26 nM. `CS(=N)(=O)c1cccc(-c2ccc(-c3nc4[nH]c(O[C@@H]5CO[C@H]6[C@@H]5OC[C@H]6O)nc4cc3Cl)cc2)c1` (stereo partly drawn) [Example 41, (3R,3aR,6R,6aR)-6-(6-Chloro-5-(3′-(S-methylsulfonimidoyl)biphenyl-4-yl)-3H-imidazo[4,5-b]pyridin-2-yloxy)hexahydrofuro[3,2-b]furan-3-ol] showed a concentration for a half-maximal effect (EC50) of 209 nM. The compound `CS(C)(=N)=Nc1ccc(-c2nc3[nH]c(O[C@@H]4CO[C@H]5[C@@H]4OC[C@H]5O)nc3cc2Cl)cc1` [Example 56, N-(4-(6-Chloro-2-((3R,3aR,6R,6aR)-6-hydroxyhexahydrofuro[3,2-b]furan-3-yloxy)-3H-imidazo[4,5-b]pyridin-5-yl)phenyl)-S,S-dimethyl-sulfondiimine] came in with an EC50 of 41 nM. This EC50 is about 5.1-fold lower than that of the compound before. On to `CS(C)(=O)=NC(=O)c1ccc(-c2ccc(-c3nc4[nH]c(O[C@@H]5CO[C@H]6[C@@H]5OC[C@H]6O)nc4cc3Cl)cc2)cc1` [Example 6, N-4′-(6-Chloro-2-((3R,3aR,6R,6aR)-6-hydroxyhexahydrofuro[3,2-b]furan-3-yloxy)-3H-imidazo[4,5-b]pyridin-5-yl)biphenyl-4-carbonyl-S,S-dimethylsulfoximide], for which a half-maximal effect (EC50) was put at 2 nM.

Consider `C[S@@](=O)(=Nc1ccc(-c2nc3[nH]c(O[C@@H]4CO[C@H]5[C@@H]4OC[C@H]5O)nc3cc2Cl)cc1)c1ccccc1` [Example 9, (S)-N-(4-(6-Chloro-2-((3R,3aR,6R,6aR)-6-hydroxyhexahydrofuro[3,2-b]furan-3-yloxy)-3H-imidazo[4,5-b]pyridin-5-yl)phenyl)-S-methyl-S-phenylsulfoximide], for which the EC50 turned out to be 14 nM. The same measure for `CS(C)(=O)=Nc1ccc2c(n1)CN(c1ccc(-c3nc4[nH]c(O[C@@H]5CO[C@H]6[C@@H]5OC[C@H]6O)nc4cc3Cl)cc1)C2` [Example 44, N-(6-{4-[6-Chloro-2-((3R,3aR,6R,6aR)-6-hydroxyhexahydrofuro[3,2-b]furan-3-yloxy)-3H-imidazo[4,5-b]pyridin-5-yl]-phenyl}-6,7-dihydro-5H-pyrrolo[3,4-b]pyridin-2-yl)-S,S-dimethylsulfoximide]: 66 nM; for `CS(C)(=O)=Nc1ccc(-c2ccc(-c3nc4[nH]c(O[C@@H]5CO[C@H]6[C@@H]5OC[C@H]6O)nc4cc3Cl)cc2)nc1` [Example 30, N-(2-(4-(6-Chloro-2-((3R,3aR,6R,6aR)-6-hydroxyhexahydrofuro[3,2-b]furan-3-yloxy)-3H-imidazo[4,5-b]pyridin-5-yl)phenyl)pyridin-5-yl)-S,S-dimethylsulfoximide]: 2 nM. In the case of `C[S@](=O)(=Nc1ccc(-c2nc3[nH]c(O[C@@H]4CO[C@H]5[C@@H]4OC[C@H]5O)nc3cc2Cl)cc1)c1ccccc1` [Example 12, (R)-N-(4-(6-Chloro-2-((3R,3aR,6R,6aR)-6-hydroxyhexahydrofuro[3,2-b]furan-3-yloxy)-3H-imidazo[4,5-b]pyridin-5-yl)phenyl)-S-methyl-S-phenylsulfoximide], the concentration for a half-maximal effect (EC50) came to 581 nM.

`CS(C)(=O)=Nc1ccnc(-c2ccc(-c3nc4[nH]c(O[C@@H]5CO[C@H]6[C@@H]5OC[C@H]6O)nc4cc3Cl)cc2)c1` [Example 37, N-(2-{4-[6-Chloro-2-((3R,3aR,6R,6aR)-6-hydroxyhexahydrofuro[3,2-b]furan-3-yloxy)-3H-imidazo[4,5-b]pyridin-5-yl]-phenyl}-pyridin-4-yl)-S,S-dimethylsulfoximide] returned an EC50 of 47 nM. The same measure for `CN=S1(=O)CCN(c2ccc(-c3nc4[nH]c(O[C@@H]5CO[C@H]6[C@@H]5OC[C@H]6O)nc4cc3Cl)cc2)CC1` [Example 5]: 62 nM; for `CS(C)(=O)=NCc1cc(-c2ccc(-c3nc4[nH]c(O[C@@H]5CO[C@H]6[C@@H]5OC[C@H]6O)nc4cc3Cl)cc2)ccn1` [Example 53]: 56 nM. Then `CS(C)(=O)=Nc1ccc(-c2nc3[nH]c(O[C@@H]4CO[C@H]5[C@@H]4OC[C@H]5O)nc3cc2Cl)cc1` [Example 1], with 275 nM; and `CS(C)(=O)=Nc1ccc2c(c1)CN(c1ccc(-c3nc4[nH]c(O[C@@H]5CO[C@H]6[C@@H]5OC[C@H]6O)nc4cc3Cl)cc1)C2` [Example 43, N-(2-{4-[6-Chloro-2-((3R,3aR,6R,6aR)-6-hydroxyhexahydrofuro[3,2-b]furan-3-yloxy)-3H-imidazo[4,5-b]pyridin-5-yl]-phenyl}-2,3-dihydro-1H-isoindol-5-yl)-S,S-dimethylsulfoximide], with 293 nM. For `C[S@](=O)(=NC(=O)c1ccc(-c2nc3[nH]c(O[C@@H]4CO[C@H]5[C@@H]4OC[C@H]5O)nc3cc2Cl)cc1)c1ccccc1` [Example 25, (R)-N-4-(6-Chloro-2-((3R,3aR,6R,6aR)-6-hydroxyhexahydrofuro[3,2-b]furan-3-yloxy)-3H-imidazo[4,5-b]pyridin-5-yl)-benzoyl-S-methyl-5-phenylsulfoximine], the 50% effective concentration (EC50) stood at 1200 nM.
